Assay results published in EP0326637A1, “New 2-anilinophenylacetic acid derivative” (Mikasa Seiyaku Co., Ltd., priority 1988, dated 1989).
Structures can show the parent of a compound that is named as a salt. Where two headings read alike, the source gives them in different places.

Key:
[1] = system: mice of ICR strain; assay: in vivo; conditions: oral, male and female mice
Method: (§1) (a) Acute oral toxicity in mice:
(§2) Groups of male and female mice of ICR strain weighing 25-35 g were used for the test, each group consisting of 6 mice. […] LD₅₀ values of the compound of this invention were calculated for each concentration according to the Litchfield-Wilcoxon's method from the number of dead mice during one week.

[2] = in vivo; conditions: mouse, in vivo, po, LD₅₀, oral administration, Litchfield-Wilcoxon's method, dead mice during one week
Method: as §1, §2

[3] = system: male rats of Wistar strain; type: in vivo
Method: (b) Gastric ulcerogenic action:
Three groups of male rats of Wistar strain weighing 300-340 g were used, each group consisting of 7 rats; one group (Group 1) was used for control, another group (Group 2) for the administration of the compound of this invention and the other group (Group 3) for the administration of diclofenac sodium salt. After 24 hour fasting prior to the test, the compound of this invention and the diclofenac sodium salt were orally administered each in a dose of 20 mg/kg to the rats of the relevant groups. Six hours after the administration, the rats were sacrificed by decaptation and their stomachs were immediately removed. A 5% formaline solution (10 ml) was injected through the cardia into the stomach cavity and the stomach was fixed overnight in a 10% formaline solution. Each fixed stomach was cut along the greater curvature, and the inside of the stomach was investigated by the naked eye to check whether ulcers and erosions occurred or not. An ulcerogenic and erosion index was 0.71±0.42 in Group 1, 1.13±0.40 in Group 2 and 17.57±4.28 in Group 3. The number of rats having ulcers or erosions was 3/7 (42.9%) in Group 1, 4/7 (57.1%) in Group 2 and 7/7 (100%) in Group 3.

[4] = Solubility (description of the substance); type: physicochemical; conditions: organic solvents
[5] = system: female mice of ICR strain; assay: Analgesic and anti-capillary permeability effects according to Wittle's method (acetic acid stretching, PSB exudation); type: in vivo; conditions: oral 25 mg/kg, 1% acetic acid i.p., compared with control Group 3 (P<0.01), no significant difference between Groups 1 and 2; for inhibitory activities of the stretching: stretchings counted for 20 minutes; for inhibitory activities of the exudation of the colorant from the peritoneal cavity: 4% Pontamine Sky Blue i.v.
From the text: (b) Analgesic and anti-capillary permeability effects according to Wittle's method:
Three groups of female mice of ICR strain weighing 22-28 g were used, each group consisting of 10 mice; one group (Group 1) was used for the administration of the compound of this invention, another group (Group 2) for the administration of diclofenac sodium salt and the other group (Group 3) as control. […] Immediately after the intraperitoneal injection, the number of stretchings of the treated mice were counted and recorded for 20 minutes. After this observation, the mice were immediately sacrificed by dislocation of cervical vertebrae and subjected to ventrotomy. The peritoneal cavity of each mouse was washed with 5 ml of distilled water to exudate PSB in the peritoneal cavity, and the amount of the colorant exudated was measured.

[6] = system: carrageenin-induced hind paw edema; assay: Inhibitory effect on carrageenin-induced hind paw edema in rats; type: in vivo, rats of Wistar strain; conditions: male Wistar rats, 8 per group, oral; reference drugs at LD₅₀ amount, compound of this invention equimolar to diclofenac sodium salt; compared with Control group (P<0.01); no significant difference between the test compounds
From the text: (a) Inhibitory effect on carrageenin-induced hind paw edema in rats:
40 Male rats of Wistar strain weighing 100-130 g were divided into the following 5 groups each consisting of 8 rats: 1. Control group, 2. Group for the administration of the compound of this invention, 3. Group for the administration of diclofenac Na, 4. Group for the administration of flurubiprofen and 5. Group for the administration of indomethacin. Prior to the administration of the test compounds, plantar injections 1% carrageenin solution were made to each rat to induce hind paw edema. To each rat of the Groups 3, 4 and 5, the LD₅₀ amount of the relevant test compound was orally administered in molar amounts. The compound of the present invention was administered in an equimolar amount to the diclofenac sodium salt.

| SMILES | LD₅₀ values relative to those of diclofenac sodium salt [1] | LD50 at 168 h ([2]; female mice) [mg/kg] | LD50 at 168 h ([2]; male mice) [mg/kg] | number of rats having ulcers or erosions ([3]; rat, in vivo, po, 20 mg/kg) | ulcerogenic and erosion index ([3]; rat, in vivo, po, 20 mg/kg) | solubility [4] | inhibitory activities of the stretching [5] | inhibitory activities of the exudation of the colorant from the peritoneal cavity [5] | swelling of the edema [6] | ulcerogenic and erosion index ([3]; male Wistar rats, 7 per group, 24 hour fasting, oral 20 mg/kg, six hours after administration) |
| --- | --- | --- | --- | --- | --- | --- | --- | --- | --- | --- |
| Cc1oc(=O)oc1COC(=O)Cc1ccccc1Nc1c(Cl)cccc1Cl [compound of this invention, (5-methyl-2-oxo-1,3-dioxolen-4-yl)methyl 2-(2,6-dichloroanilino)phenylacetate] | approximately 3 times | 516 | 460 | 4/7 (57.1%) | 1.13±0.40 | soluble in organic solvents such as alcohols | significant difference | significant difference | significantly inhibited | – |
| O=C(O)Cc1ccccc1Nc1c(Cl)cccc1Cl [diclofenac sodium salt, reference compound] | – | – | – | – | – | – | significant difference | significant difference | significantly inhibited | 17.57±4.28 |
| CC(C(=O)O)c1ccc(-c2ccccc2)c(F)c1 (stereo not drawn) [flurubiprofen] | – | – | – | – | – | – | – | – | significantly inhibited | – |
| COc1ccc2c(c1)c(CC(=O)O)c(C)n2C(=O)c1ccc(Cl)cc1 [indomethacin] | – | – | – | – | – | – | – | – | significantly inhibited | – |
